Calls of active or inactive are those of the source. The rule behind the calls is not given here.
Columns and labels:
[1] = target: RAF proto-oncogene serine/threonine-protein kinase (Homo sapiens) (UniProt P04049); experiment: Inhibition of c-RAF (unknown origin) at 1 uM relative to control
[2] = target: Casein kinase I isoform gamma-2 (Homo sapiens, UniProt P78368); experiment: Inhibition of CSNK1G2 (unknown origin)
[3] = target: Proto-oncogene tyrosine-protein kinase Src (Homo sapiens) (UniProt P12931); experiment: Inhibition of SRC (unknown origin) at 1 uM relative to control
[4] = target: Death-associated protein kinase 1 (Homo sapiens, UniProt P53355); experiment: Inhibition of DAPK1 (unknown origin)
[5] = target: Myotonin-protein kinase (Homo sapiens) (UniProt Q09013); experiment: Inhibition of DMPK (unknown origin) at 1 uM relative to control
[6] = target: Epidermal growth factor receptor (Homo sapiens) (UniProt P00533); experiment: Inhibition of EGFR (unknown origin) at 1 uM relative to control
Ephrin type-A receptor 5 = Ephrin type-A receptor 5 (Homo sapiens, UniProt P54756); experiment: Inhibition of EPHA5 (unknown origin)
[7] = target: Receptor-type tyrosine-protein kinase FLT3 (Homo sapiens, UniProt P36888); experiment: Inhibition of Flt3 (unknown origin)
[8] = target: Mitogen-activated protein kinase kinase kinase kinase 2 (Homo sapiens, UniProt Q12851); experiment: Inhibition of GCK (unknown origin)
[9] = target: Tyrosine-protein kinase Lyn (Homo sapiens, UniProt P07948); experiment: Inhibition of LYNA (unknown origin)
[10] = target: Mitogen-activated protein kinase 14 (Homo sapiens, UniProt Q16539); experiment: Inhibition of MAPK14 (unknown origin)
[11] = target: Serine/threonine-protein kinase MARK1 (Homo sapiens) (UniProt Q9P0L2); experiment: Inhibition of MARK1 (unknown origin) at 1 uM relative to control
[12] = target: Dual specificity mitogen-activated protein kinase kinase 1 (Homo sapiens) (UniProt Q02750); experiment: Inhibition of MEK1 (unknown origin) at 1 uM relative to control
Misshapen-like kinase 1 = Misshapen-like kinase 1 (Homo sapiens, UniProt Q8N4C8); experiment: Inhibition of MINK1 (unknown origin) at 1 uM relative to control
[13] = target: Serine/threonine-protein kinase MARK2 (Homo sapiens) (UniProt Q7KZI7); experiment: Inhibition of PAR-1B (unknown origin) at 1 uM relative to control
[14] = target: PAS domain-containing serine/threonine-protein kinase (Homo sapiens) (UniProt Q96RG2); experiment: Inhibition of PASK (unknown origin) at 1 uM relative to control
Homo sapiens = species: Homo sapiens; experiment: Inhibition of PhK2 (unknown origin) at 1 uM relative to control
[15] = target: Serine/threonine-protein kinase pim-1 (Homo sapiens) (UniProt P11309); experiment: Inhibition of Pim-1 (unknown origin) at 1 uM relative to control
[16] = target: Protein kinase C beta type (Homo sapiens) (UniProt P05771); experiment: Inhibition of PKCb (unknown origin) at 1 uM relative to control
[17] = target: Serine/threonine-protein kinase D2 (Homo sapiens) (UniProt Q9BZL6); experiment: Inhibition of PKD2 (unknown origin) at 1 uM relative to control
[18] = target: Ribosomal protein S6 kinase alpha-1 (Homo sapiens) (UniProt Q15418); experiment: Inhibition of Rsk1 (unknown origin) at 1 uM relative to control
[19] = target: Serine/threonine-protein kinase SIK1 (Homo sapiens) (UniProt P57059); experiment: Inhibition of SIK (unknown origin) at 1 uM relative to control
[20] = target: Serine/threonine-protein kinase PLK2 (Homo sapiens) (UniProt Q9NYY3); experiment: Inhibition of Snk (unknown origin) at 1 uM relative to control
[21] = target: Serine/threonine-protein kinase TAO1 (Homo sapiens) (UniProt Q7L7X3); experiment: Inhibition of TAO1 (unknown origin) at 1 uM relative to control
[22] = target: Testis-specific serine/threonine-protein kinase 2 (Homo sapiens) (UniProt Q96PF2); experiment: Inhibition of TSSK2 (unknown origin) at 1 uM relative to control
[23] = target: Tyrosine-protein kinase TXK (Homo sapiens) (UniProt P42681); experiment: Inhibition of Txk (unknown origin) at 1 uM relative to control
[24] = target: Serine/threonine-protein kinase ULK3 (Homo sapiens) (UniProt Q6PHR2); experiment: Inhibition of ULK3 (unknown origin) at 1 uM relative to control
[25] = Cmax in CD-1 mouse at 1 mg/kg, iv measured upto 8 hrs by LC-MS analysis; type: ADME, organism-based; conditions: in vivo
[26] = Cmax in CD-1 mouse at 5 mg/kg, po measured upto 24 hrs by LC-MS analysis; type: ADME, organism-based; conditions: in vivo
[27] = AUC (0 to 24 hrs) in CD-1 mouse at 5 mg/kg, po measured upto 24 hrs by LC-MS analysis; type: ADME, organism-based; conditions: in vivo
[28] = Half life in CD-1 mouse at 5 mg/kg, po measured upto 24 hrs by LC-MS analysis; type: ADME, organism-based; conditions: in vivo
[29] = Half life in Sprague-Dawley rat at 1 mg/kg, iv measured upto 8 hrs by LC-MS analysis; type: ADME, organism-based; conditions: in vivo
Rattus norvegicus = experiment: Antiarthritic activity against collagen-induced arthritis Dark Agouti rat model assessed as reduction in clinical score at 0.1 mg/kg, po measured after day 5; type: functional, organism-based; conditions: time 5.0 day
Mus musculus [30] = experiment: Antiarthritic activity against collagen-induced arthritis DBA/1J mouse model assessed as cartilage degradation by measuring lesion score in hind paw at 50 mg/kg, po administered twice daily for 14 days by histological analysis; type: functional, organism-based; conditions: time 14.0 day
Mus musculus [31] = experiment: Antiarthritic activity against collagen-induced arthritis DBA/1J mouse model assessed as reduction in MX2 expression in paw at 50 mg/kg, po measured for 2 weeks by RT-PCR analysis; type: functional, organism-based
Mus musculus [32] = experiment: Antiarthritic activity against collagen-induced arthritis DBA/1J mouse model assessed as MIP-1beta level in serum at 50 mg/kg, po measured for 4 hrs by luminex analysis (reference value: 203.4= +/- 20.8 ng/ml); type: functional
Mus musculus [33] = experiment: Antiarthritic activity against collagen-induced arthritis DBA/1J mouse model assessed as MCP-5 level in serum at 50 mg/kg, po measured for 4 hrs by luminex analysis (reference value: 62.8 +/- 12.4 ng/ml); type: functional
Mus musculus [34] = experiment: Antiarthritic activity against collagen-induced arthritis DBA/1J mouse model assessed as SCF level in serum at 50 mg/kg, po measured for 4 hrs by luminex analysis (reference value: 672.4 +/- 242.2 ng/ml); type: functional
Mus musculus [35] = experiment: Antiarthritic activity against collagen-induced arthritis DBA/1J mouse model assessed as reduction in IL-6 level in serum at 50 mg/kg, po measured for 4 hrs by luminex analysis; type: functional, organism-based
Mus musculus [36] = experiment: Antiarthritic activity against collagen-induced arthritis DBA/1J mouse model assessed as reduction in XCL1 level in serum at 50 mg/kg, po measured for 4 hrs by luminex analysis; type: functional, organism-based
Mus musculus [37] = experiment: Antiarthritic activity against collagen-induced arthritis DBA/1J mouse model assessed as reduction in MCP-1 level in serum at 50 mg/kg, po measured for 4 hrs by luminex analysis; type: functional, organism-based

Chain of Receptor-type tyrosine-protein kinase FLT3 (P36888 whole entry): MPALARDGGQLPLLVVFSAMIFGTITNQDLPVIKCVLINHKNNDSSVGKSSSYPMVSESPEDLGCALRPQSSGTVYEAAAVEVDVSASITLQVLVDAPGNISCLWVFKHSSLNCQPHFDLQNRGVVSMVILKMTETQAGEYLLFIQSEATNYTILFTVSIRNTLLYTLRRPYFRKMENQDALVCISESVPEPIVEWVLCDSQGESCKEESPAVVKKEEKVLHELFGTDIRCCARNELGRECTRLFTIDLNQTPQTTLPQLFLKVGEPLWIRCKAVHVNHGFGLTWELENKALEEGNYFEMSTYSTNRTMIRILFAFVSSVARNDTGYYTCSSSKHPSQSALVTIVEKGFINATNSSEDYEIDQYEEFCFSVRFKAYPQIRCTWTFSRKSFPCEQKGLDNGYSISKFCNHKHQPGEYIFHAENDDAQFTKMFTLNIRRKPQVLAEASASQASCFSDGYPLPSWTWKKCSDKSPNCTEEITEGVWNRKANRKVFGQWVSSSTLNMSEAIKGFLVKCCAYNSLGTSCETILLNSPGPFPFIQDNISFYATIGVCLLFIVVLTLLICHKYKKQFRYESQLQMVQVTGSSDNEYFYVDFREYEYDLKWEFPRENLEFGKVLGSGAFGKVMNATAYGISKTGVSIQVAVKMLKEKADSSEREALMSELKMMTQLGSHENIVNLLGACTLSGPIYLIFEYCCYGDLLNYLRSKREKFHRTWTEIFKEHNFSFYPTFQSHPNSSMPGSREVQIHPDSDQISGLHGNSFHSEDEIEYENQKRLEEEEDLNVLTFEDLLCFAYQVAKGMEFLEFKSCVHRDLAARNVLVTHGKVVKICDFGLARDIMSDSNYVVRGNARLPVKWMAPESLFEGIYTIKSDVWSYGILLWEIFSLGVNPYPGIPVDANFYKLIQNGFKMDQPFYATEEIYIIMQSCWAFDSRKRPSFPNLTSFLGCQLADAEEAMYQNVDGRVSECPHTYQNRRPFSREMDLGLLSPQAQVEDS
Chain of Serine/threonine-protein kinase SIK1 (Homo sapiens) (P57059 whole entry): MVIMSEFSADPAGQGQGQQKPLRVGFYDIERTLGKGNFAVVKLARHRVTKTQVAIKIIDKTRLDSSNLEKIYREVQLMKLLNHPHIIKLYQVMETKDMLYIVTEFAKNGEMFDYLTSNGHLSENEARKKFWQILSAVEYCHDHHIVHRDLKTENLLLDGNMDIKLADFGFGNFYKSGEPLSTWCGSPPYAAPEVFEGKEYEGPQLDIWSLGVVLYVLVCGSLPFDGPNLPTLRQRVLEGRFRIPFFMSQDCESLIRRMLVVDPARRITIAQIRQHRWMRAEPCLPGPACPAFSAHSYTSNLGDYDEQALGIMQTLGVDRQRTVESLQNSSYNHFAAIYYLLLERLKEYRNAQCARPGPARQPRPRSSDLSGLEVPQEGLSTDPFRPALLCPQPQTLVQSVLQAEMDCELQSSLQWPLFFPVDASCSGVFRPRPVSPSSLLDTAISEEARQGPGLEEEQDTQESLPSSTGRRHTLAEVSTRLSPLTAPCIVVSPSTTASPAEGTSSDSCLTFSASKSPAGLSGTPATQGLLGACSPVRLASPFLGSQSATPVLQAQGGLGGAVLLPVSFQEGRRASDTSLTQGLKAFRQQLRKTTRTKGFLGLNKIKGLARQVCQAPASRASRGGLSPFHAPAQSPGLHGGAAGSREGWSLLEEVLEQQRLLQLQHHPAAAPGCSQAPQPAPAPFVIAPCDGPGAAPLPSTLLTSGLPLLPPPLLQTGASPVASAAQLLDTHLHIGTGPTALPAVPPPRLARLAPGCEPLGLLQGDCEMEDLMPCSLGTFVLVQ
Chain of Tyrosine-protein kinase Lyn (P07948 whole entry): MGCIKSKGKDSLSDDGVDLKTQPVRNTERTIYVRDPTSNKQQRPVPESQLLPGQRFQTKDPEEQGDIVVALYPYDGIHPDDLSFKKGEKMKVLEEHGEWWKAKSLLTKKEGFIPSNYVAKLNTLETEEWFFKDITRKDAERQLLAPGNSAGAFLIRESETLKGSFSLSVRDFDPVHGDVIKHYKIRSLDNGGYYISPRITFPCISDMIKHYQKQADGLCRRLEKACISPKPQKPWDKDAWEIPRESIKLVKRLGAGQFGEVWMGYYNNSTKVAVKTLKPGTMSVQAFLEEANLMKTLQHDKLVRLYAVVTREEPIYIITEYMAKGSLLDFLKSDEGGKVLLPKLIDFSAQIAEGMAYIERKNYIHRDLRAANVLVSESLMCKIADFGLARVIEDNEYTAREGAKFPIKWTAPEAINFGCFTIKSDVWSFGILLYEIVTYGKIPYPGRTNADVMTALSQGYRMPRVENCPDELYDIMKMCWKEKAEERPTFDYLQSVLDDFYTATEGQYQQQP
Chain of PAS domain-containing serine/threonine-protein kinase (Homo sapiens) (Q96RG2 whole entry, the tested form may be a part): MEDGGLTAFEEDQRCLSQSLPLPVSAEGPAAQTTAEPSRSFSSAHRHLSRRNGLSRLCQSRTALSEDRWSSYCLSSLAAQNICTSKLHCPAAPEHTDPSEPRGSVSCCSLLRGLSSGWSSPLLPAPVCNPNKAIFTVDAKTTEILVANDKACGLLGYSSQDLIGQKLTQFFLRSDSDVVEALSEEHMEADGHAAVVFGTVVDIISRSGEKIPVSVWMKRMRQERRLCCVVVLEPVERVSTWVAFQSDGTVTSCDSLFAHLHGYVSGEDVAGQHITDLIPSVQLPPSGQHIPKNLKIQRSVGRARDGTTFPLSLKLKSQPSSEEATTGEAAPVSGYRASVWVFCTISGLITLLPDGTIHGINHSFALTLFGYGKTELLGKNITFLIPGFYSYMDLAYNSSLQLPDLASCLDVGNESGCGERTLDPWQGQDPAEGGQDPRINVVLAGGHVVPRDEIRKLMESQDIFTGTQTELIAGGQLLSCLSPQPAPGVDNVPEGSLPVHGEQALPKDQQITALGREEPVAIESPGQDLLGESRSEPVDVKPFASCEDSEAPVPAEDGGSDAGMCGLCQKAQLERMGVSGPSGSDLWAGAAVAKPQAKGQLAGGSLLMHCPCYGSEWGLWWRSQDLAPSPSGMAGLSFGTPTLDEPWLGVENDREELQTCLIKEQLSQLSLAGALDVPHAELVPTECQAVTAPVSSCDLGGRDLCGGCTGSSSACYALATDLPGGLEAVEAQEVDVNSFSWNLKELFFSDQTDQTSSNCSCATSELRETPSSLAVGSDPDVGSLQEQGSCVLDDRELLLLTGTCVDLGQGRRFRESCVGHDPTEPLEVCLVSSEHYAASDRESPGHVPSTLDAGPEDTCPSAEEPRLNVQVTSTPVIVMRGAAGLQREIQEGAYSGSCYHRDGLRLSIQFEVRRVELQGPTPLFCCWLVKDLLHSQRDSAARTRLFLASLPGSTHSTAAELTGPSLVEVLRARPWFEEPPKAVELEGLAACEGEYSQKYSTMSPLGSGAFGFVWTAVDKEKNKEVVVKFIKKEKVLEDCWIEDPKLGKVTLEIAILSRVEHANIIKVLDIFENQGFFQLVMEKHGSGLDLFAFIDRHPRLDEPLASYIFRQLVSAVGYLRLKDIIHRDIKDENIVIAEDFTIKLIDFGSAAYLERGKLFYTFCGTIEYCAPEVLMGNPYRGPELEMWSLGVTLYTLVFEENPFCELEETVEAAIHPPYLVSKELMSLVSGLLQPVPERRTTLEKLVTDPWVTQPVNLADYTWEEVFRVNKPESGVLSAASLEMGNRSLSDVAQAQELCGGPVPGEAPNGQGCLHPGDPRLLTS
Chain of RAF proto-oncogene serine/threonine-protein kinase (Homo sapiens) (P04049 whole entry, canonical isoform): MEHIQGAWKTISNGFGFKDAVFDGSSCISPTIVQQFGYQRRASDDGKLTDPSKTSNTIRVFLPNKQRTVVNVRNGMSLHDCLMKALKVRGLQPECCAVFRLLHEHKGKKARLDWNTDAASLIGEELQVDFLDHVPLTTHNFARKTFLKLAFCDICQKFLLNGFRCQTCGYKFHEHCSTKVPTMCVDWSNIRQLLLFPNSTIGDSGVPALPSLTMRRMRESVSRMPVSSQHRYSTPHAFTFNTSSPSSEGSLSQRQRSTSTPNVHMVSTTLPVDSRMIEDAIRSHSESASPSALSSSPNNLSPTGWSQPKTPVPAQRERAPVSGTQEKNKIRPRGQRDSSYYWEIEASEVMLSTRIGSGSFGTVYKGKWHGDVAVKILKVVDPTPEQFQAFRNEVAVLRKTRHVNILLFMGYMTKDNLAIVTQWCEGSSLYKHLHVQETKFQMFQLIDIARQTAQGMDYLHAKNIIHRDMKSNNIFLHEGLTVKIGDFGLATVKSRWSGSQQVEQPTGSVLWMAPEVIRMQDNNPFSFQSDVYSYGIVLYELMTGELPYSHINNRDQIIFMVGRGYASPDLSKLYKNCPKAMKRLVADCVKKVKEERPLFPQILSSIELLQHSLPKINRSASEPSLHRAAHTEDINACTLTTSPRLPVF
Chain of Casein kinase I isoform gamma-2 (P78368 whole entry, canonical isoform): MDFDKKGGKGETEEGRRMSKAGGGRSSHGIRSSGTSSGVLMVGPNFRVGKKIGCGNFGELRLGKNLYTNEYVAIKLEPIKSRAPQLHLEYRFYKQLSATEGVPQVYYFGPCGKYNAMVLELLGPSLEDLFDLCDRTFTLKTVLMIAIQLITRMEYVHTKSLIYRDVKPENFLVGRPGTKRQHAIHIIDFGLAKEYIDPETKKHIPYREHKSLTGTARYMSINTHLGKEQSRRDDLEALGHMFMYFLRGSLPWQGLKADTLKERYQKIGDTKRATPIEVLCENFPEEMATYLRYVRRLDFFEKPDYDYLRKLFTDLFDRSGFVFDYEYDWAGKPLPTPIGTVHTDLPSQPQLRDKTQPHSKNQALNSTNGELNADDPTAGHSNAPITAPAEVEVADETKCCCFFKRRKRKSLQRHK
Chain of Serine/threonine-protein kinase pim-1 (Homo sapiens) (P11309 whole entry, looked up): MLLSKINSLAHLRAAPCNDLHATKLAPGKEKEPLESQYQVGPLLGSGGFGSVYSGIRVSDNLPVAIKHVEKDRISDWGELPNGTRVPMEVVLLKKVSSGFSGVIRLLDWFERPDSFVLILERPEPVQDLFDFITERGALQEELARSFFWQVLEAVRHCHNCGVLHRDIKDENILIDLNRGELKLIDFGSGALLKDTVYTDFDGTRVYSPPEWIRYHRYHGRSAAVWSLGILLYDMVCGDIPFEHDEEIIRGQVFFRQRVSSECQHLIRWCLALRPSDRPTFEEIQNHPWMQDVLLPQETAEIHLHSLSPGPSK

inhibition [1]: -4% | IC50 [2]: > 10 µM | inhibition [3]: -10% | inhibition [5]: -4% | inhibition [6]: -5% | IC50 (Ephrin type-A receptor 5): > 10 µM | IC50 [7]: 0.338 µM | IC50 [8]: > 10 µM | IC50 [9]: > 10 µM | IC50 [10]: > 10 µM | inhibition [11]: 7% | inhibition [12]: -3% | inhibition (Misshapen-like kinase 1): -2% | inhibition [13]: -7% | inhibition [14]: 1% | inhibition (Homo sapiens): -7% | inhibition [15]: -7% | inhibition [16]: -2% | inhibition [17]: -10% | inhibition [18]: 2% | inhibition [19]: 1% | inhibition [20]: 0% | inhibition [21]: -4% | inhibition [22]: -5% | inhibition [23]: 14% | inhibition [24]: 4% | Cmax [25]: 637 ng/mL | Cmax [26]: 920 ng/mL | AUC [27]: 1890 ng·h/mL | half-life [28]: 1.7 h | half-life [29]: 1.6 h
Structure (SMILES): O=C(Nc1nc2cccc(-c3ccc(CN4CCS(=O)(=O)CC4)cc3)n2n1)C1CC1 [FILGOTINIB]
IC50 [4]: > 10 µM | Activity (Rattus norvegicus): Active | Activity (Mus musculus [30]): Active | Activity (Mus musculus [31]): Active | Activity (Mus musculus [32]): 143 ng/mL | Activity (Mus musculus [33]): 36.4 ng/mL | Activity (Mus musculus [34]): 422.6 ng/mL | Activity (Mus musculus [35]): Active | Activity (Mus musculus [36]): Active | Activity (Mus musculus [37]): Active
